The text below walks through data of paper PMC7481407, “Inhibition of Pendrin by a small molecule reduces Lipopolysaccharide-induced acute Lung Injury” (Theranostics, 2020).

The test deals with T1, pendrin (Homo sapiens, UniProt O43511).
T1 construct: gene SLC26A4; human wild-type pendrin expressed in human alveolar epithelial cells (hAEC)
T1 sequence (O43511 1-780): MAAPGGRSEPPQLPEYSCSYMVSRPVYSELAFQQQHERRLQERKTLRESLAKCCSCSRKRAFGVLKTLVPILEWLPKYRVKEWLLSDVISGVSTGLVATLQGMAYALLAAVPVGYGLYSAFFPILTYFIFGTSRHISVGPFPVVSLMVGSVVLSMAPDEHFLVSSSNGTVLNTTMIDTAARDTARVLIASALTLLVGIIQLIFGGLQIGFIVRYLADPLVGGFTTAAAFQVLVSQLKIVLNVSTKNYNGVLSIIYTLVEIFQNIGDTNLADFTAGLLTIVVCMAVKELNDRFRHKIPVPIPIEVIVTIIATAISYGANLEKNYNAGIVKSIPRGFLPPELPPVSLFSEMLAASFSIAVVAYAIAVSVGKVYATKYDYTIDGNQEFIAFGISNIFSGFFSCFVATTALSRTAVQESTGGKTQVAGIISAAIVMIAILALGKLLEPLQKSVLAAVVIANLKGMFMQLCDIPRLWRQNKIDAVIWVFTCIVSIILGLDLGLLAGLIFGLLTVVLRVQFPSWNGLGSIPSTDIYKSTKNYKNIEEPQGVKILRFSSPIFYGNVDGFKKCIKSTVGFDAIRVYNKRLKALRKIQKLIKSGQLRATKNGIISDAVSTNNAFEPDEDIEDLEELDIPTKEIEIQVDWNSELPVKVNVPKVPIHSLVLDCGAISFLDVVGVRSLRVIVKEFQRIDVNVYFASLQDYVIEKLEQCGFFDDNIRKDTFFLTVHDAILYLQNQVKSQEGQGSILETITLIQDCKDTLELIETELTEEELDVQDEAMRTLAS
In words: Cl-/SCN- exchange activity assay in pendrin-transfected human alveolar epithelial cells, dose-response. Format: cell-based.

Compound `CC(C)(C)c1ccc(C2=N/C(=C/c3cccs3)C(=O)O2)cc1` [YS-01] gave an IC50 of 4.7 ± 0.82 µM.

In general, IC50 refers to the concentration that inhibits the measured activity by half.
